One data set addresses DOGT1 (UGT73C5) (Arabidopsis thaliana, UniProt Q9ZQ94). Format: cell-based.
Another data set has as its system laboratory animals. Conditions: in vivo; cited from earlier work.
The target of another data set is UGT73C4 (Arabidopsis thaliana, UniProt Q9ZQ97). In kind it is cell-based.
The next data set concerns DOGT1 mRNA expression. More on the design: species or system Arabidopsis thaliana. The note with it: in vivo.
Data set [1] relates to Saccharomyces cerevisiae strain YZGA452. Format: cell-based.
Another data set concerns wheat ribosomes. Format: biochemical.
Data set [2] concerns A. thaliana wild-type Col-0. Conditions: in vivo.
For data set [3], the system named is DOGT1 promoter (PDOGT1-GUS). More on the design: species or system Arabidopsis thaliana. Conditions: in vivo.
The test system of the next data set is coleoptile elongation. Conditions: in vivo; cited from earlier work.

Chain of DOGT1 (UGT73C5) (Q9ZQ94 whole entry, looked up): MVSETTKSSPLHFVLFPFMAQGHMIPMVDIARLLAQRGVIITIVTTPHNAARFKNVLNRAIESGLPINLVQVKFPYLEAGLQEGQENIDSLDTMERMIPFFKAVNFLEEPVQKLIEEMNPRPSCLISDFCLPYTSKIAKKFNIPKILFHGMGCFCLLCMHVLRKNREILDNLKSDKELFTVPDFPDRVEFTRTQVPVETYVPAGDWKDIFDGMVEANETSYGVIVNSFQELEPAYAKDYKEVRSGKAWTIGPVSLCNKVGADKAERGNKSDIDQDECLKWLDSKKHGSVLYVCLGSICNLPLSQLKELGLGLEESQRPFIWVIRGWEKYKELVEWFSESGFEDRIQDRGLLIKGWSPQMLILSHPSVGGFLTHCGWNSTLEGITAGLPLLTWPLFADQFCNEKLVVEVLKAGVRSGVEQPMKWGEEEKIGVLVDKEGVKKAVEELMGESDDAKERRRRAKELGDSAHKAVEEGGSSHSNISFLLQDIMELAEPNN
Chain of UGT73C4 (Q9ZQ97 whole entry, looked up): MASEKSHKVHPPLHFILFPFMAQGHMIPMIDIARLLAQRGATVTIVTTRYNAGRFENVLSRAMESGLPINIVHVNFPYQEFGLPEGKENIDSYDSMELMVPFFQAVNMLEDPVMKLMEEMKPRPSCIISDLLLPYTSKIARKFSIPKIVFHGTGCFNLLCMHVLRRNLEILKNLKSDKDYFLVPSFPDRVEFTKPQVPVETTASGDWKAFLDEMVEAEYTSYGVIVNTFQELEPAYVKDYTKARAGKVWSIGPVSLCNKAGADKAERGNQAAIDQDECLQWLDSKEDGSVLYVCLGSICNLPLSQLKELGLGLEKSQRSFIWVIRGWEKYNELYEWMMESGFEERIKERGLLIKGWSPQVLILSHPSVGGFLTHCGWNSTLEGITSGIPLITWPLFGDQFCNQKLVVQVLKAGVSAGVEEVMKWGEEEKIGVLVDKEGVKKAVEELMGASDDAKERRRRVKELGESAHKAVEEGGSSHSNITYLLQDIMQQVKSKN

Consider `CC(=O)O[C@@H]1C[C@]2(C)[C@@]3(CO)[C@H](O)C(=O)C(C)=C[C@H]3O[C@H]1[C@@]21CO1` [3-ADON, 3-acetyl-deoxynivalenol], for which the “resistance to the toxin conferred by DOGT1 expression (detoxification)” value at DOGT1 (UGT73C5) is “inability to confer resistance”. In addition, the “fold less toxic than DON to laboratory animals” value in the data set with laboratory animals is listed as “about 2 fold”. Besides, at UGT73C4, the “resistance to the toxin conferred by UGT73C4 expression (detoxification)” value was “failed to confer resistance”.

Regarding `CC(=O)OC[C@]12[C@H](O)C(=O)C(C)=C[C@H]1O[C@@H]1[C@H](O)C[C@@]2(C)[C@]12CO2` [15-ADON, 15-acetyl-deoxynivalenol], the “resistance to the toxin conferred by DOGT1 expression (detoxification)” value on DOGT1 (UGT73C5) is recorded as “protection”. Also, at UGT73C4, the “resistance to the toxin conferred by UGT73C4 expression (detoxification)” value is “had the ability to detoxify”.

Consider `CC1=C[C@H]2O[C@@H]3[C@H](O)C[C@](C)([C@@]2(CO)[C@H](O)C1=O)[C@]31CO1` [DON, deoxynivalenol], for which the “induction of DOGT1 transcript (RT-PCR)” value with DOGT1 mRNA expression is “DON inducible expression”. Also, the “resistance to the toxin conferred by DOGT1 expression (detoxification)” value on DOGT1 (UGT73C5) was “protects against”. Besides, in [1], the “concentration sufficient to completely inhibit growth of yeast” value was found to be 180 ppm. In addition, in the data set on wheat ribosomes, the “luminescence remaining (luciferase activity of control)” value came to 3.1% and the “reporter enzyme (luciferase) activity compared to the control (100%)” value amounted to 36.8%. In addition, the “main phytotoxic effect on wild-type plants” value in [2] was “slow germination”. Besides, the “resistance to the toxin conferred by UGT73C4 expression (detoxification)” value on UGT73C4 is reported as “had the ability to detoxify”. Besides, the “induction of PDOGT1-GUS reporter expression” value in data set [3] was “induce”.

On to `CC1=CC2OC3C(O[C@@H]4O[C@H](CO)[C@@H](O)[C@H](O)[C@H]4O)CC(C)(C34CO4)C2(CO)C(O)C1=O` (stereo partly drawn) [DON-3-glucoside, 3-β-D-Glucopyranosyl-4-deoxynivalenol], for which the “inhibition of luciferase activity” value in the data set on wheat ribosomes (20 µM) came to 8%.

As for `CC(=O)OC[C@]12C[C@H](OC(=O)CC(C)C)C(C)=C[C@H]1O[C@@H]1[C@H](O)[C@@H](O)[C@@]2(C)[C@]12CO2` [HT-2-toxin, HT-2 toxin], the “resistance to the toxin conferred by UGT73C4 expression (detoxification)” value on UGT73C4 is given as “failed to confer resistance”.

With `CC/C=C\C[C@H]1C(=O)CC[C@@H]1CC(=O)O` [JA, jasmonic acid], in the data set with DOGT1 mRNA expression, the “induction of DOGT1 transcript (RT-PCR)” value was “weak induction”. For the same compound, in data set [3], the “induction of PDOGT1-GUS reporter expression” value is “No induction”.

In the case of `CC1=C[C@H]2O[C@@H]3[C@H](O)[C@@H](O)[C@](C)([C@@]2(CO)[C@H](O)C1=O)[C@]31CO1` [NIV, nivalenol], the “resistance to the toxin conferred by DOGT1 expression (detoxification)” value on DOGT1 (UGT73C5) was “lack of activity”. Further, the “toxicity compared with DON in animal systems” value in the data set on laboratory animals was “higher toxicity”. The “resistance to the toxin conferred by UGT73C4 expression (detoxification)” value at UGT73C4 is reported as “failed to confer resistance”.

As to `O=C(O)c1ccccc1O` [SA, salicylic acid], the “induction of DOGT1 transcript (RT-PCR)” value in the data set on DOGT1 mRNA expression is recorded as “rather weakly”. In addition, the “induction of PDOGT1-GUS reporter expression” value in data set [3] is listed as “No induction”.

On to `C/C=C\C(=O)O[C@@H]1C[C@H]2O[C@@H]3C=C(C)C(=O)C[C@]3(C)[C@]1(C)[C@]21CO1` [TTC, trichothecin], for which the “resistance to the toxin conferred by UGT73C4 expression (detoxification)” value at UGT73C4 is “failed to confer resistance”.

Acetyl-DON [ADON]: the “overall toxicity compared with the non-acetylated form (DON)” value in the data set on coleoptile elongation is recorded as “equivalent”.

As to diacetoxyscirpenol [DAS], the “resistance to the toxin conferred by UGT73C4 expression (detoxification)” value on UGT73C4 is “failed to confer resistance”.

On to veruccarin A [VA], for which, at UGT73C4, the “resistance to the toxin conferred by UGT73C4 expression (detoxification)” value is “failed to confer resistance”.

The values are drawn from patent publication US20060183202A1 (priority 2003, published 2006).
